# Data taken from patent US20140187593A1, “DIAGNOSTIC TEST AND TREATMENT FOR A NE[…]” (priority 2012, published 2014).
# System: patients with VMAT2 mutation
# Experiment: Clinical response of the index case to vitamin B6 or folinic acid
# Format: in vivo, human
# Description: The index case was a person with global developmental delay and abnormal movements. They had first been brought to medical attention with hypotonia, loss of acquired head control, and paroxysmal stereotyped episodes of persistent eye deviation and crying lasting hours. Video-EEG monitoring had excluded seizures, and a symptom diagnosis of oculogyric crisis had been made. Development had been normal initially, but had slowed after presentation. […] […] […] They had axial hypotonia and appendicular hypertonia specifically involving extensor muscles of upper and lower extremities. Deep tendon reflexes were 2+/4 and plantars flexor. […] Gait was parkinsonian with typical shuffling, posture was stooped, and postural reflexes diminished. They walked with bilateral alternating dystonia of hands and feet with intermittent toe walking and foot inversion, and was unable to tandem walk.
row,Structure (SMILES),Clinical improvement of symptoms
1,Nc1nc(=O)c2c([nH]1)NCC(CNc1ccc(C(=O)N[C@@H](CCC(=O)O)C(=O)O)cc1)N2C=O (mixture of isomers) [folinic acid],no improvement
2,Cc1ncc(CO)c(CO)c1O.Cl [vitamin B6],no improvement
